Measured values published in ChEMBL document CHEMBL2346546, “Hit identification of novel heparanase inhibitors by structure- and ligand-based approaches” (Bioorg Med Chem, 2013).
Active and inactive are the calls of the source. The rule behind the calls is not given here.

Experiments:
Heparanase [1] = target: T1, Heparanase (Homo sapiens, UniProt Q9Y251); test: Inhibition of recombinant heparanase catalytic stie (unknown origin) expressed in Escherichia coli BL21 (DE3)
T1 sequence (Q9Y251 whole entry): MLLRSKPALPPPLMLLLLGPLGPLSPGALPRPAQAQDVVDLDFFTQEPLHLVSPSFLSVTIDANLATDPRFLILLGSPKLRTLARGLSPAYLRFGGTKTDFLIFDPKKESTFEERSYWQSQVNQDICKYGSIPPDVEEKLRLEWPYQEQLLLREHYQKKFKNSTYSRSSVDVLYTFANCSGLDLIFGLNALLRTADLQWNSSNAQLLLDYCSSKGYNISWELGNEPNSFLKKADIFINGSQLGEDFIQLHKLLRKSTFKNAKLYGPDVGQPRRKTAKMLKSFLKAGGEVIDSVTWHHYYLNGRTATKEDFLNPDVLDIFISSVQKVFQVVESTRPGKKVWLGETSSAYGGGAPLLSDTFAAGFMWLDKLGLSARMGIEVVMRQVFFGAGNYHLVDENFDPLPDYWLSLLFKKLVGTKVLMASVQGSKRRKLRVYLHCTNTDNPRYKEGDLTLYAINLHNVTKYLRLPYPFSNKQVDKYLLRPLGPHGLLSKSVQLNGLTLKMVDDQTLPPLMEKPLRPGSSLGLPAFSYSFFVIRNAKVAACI

Heparanase [2] = target: T1, Heparanase; test: Binding affinity to recombinant heparanase catalytic stie (unknown origin) expressed in Escherichia coli BL21 (DE3) by surface plasmon resonance assay
[3] = target: T2, Heparanase (Homo sapiens) (UniProt Q9Y251); test: Binding affinity to recombinant heparanase catalytic stie (unknown origin) expressed in Escherichia coli BL21 (DE3) by NMR analysis
T2 sequence (whole entry): T1 sequence (Q9Y251 whole entry)

Compound | IC50 (Heparanase [1]) | Kd (Heparanase [2]) | Activity [3]
CCCCCCCCCCCCCCCc1cc(O[C@@H]2OC(C(=O)O)[C@H](O)[C@H](O)C2O)cc(O)c1C(=O)Oc1cc(C)c(C(=O)O)c(O)c1 (stereo partly specified) | 10 µM |  | 
CCOc1ccc(Nc2ccnc3cc(Cl)ccc23)cc1CN1CCCC1 |  | 169 µM | 
C[C@@H]1O[C@@H](O[C@H]2[C@H](Oc3cc(O)c4c(c3)O[C@H](c3ccc(O)cc3)CC4=O)O[C@H](CO)[C@@H](O)[C@@H]2O)[C@H](O)[C@H](O)[C@H]1O [NARINGIN] |  | > 1000 µM | Active
O=C(O)c1ccccc1C(=O)c1ccc(Oc2ccccc2)c([N+](=O)[O-])c1 | 1 µM |  | 
CN1C[C@H](CNC(=O)OCc2ccccc2)C[C@@H]2c3cccc4c3c(cn4C)C[C@H]21 [METERGOLINE] |  | > 1000 µM | Active
O=C(CN1CCCCC1)Nc1cc(CN2CCC(O)CC2)cc(Nc2ccnc3cc(Cl)ccc23)c1 |  | 1000 µM | 
CCN(CC)Cc1cc(Nc2ccnc3cc(Cl)ccc23)ccc1O |  | 52.6 µM | Active
CCCCCCCCCCCCCCCC(=O)C1=C(O)[C@@H](CO)OC1=O | 17 µM |  | 
CN(C)CCCNC(=O)c1cc(NC(=O)CN2CCCCC2)cc(Nc2ccnc3cc(Cl)ccc23)c1 |  | > 1000 µM | 
COc1cc(N)c(Cl)cc1C(=O)NC1CCN(CCCOc2ccc(F)cc2)CC1OC (stereo unspecified) [CISAPRIDE] |  | > 1000 µM | Active
Clc1ccc2c(Nc3ccc(-c4ccco4)c(CN4CCCC4)c3)ccnc2c1 |  | > 1000 µM | 
COc1ccc(CCN2CCC(Nc3nc4ccccc4n3Cc3ccc(F)cc3)CC2)cc1 [ASTEMIZOLE] |  | > 1000 µM | Active
CN(C)CCNCc1cc(NC(=O)CN2CCCCC2)cc(Nc2ccnc3cc(Cl)ccc23)c1 |  | 639 µM | 
CCN(CC)Cc1cc(Nc2ccnc3cc(Cl)ccc23)ccc1N1CCOCC1 |  | 239 µM | 
CC(CCc1ccccc1)NCC(O)c1ccc(O)c(C(N)=O)c1 (stereo unspecified) [LABETALOL] |  | 1000 µM | Active
O=C(CN1CCCCC1)Nc1cc(Nc2ccnc3cc(Cl)ccc23)cc(C(=O)N2CCOCC2)c1 |  | > 1000 µM | 
CCN(CC)Cc1cc(Nc2ccnc3cc(Cl)ccc23)ccc1Br |  | > 1000 µM | 
COc1ccc([C@@H]2CC(=O)c3c(O)cc(O[C@@H]4O[C@H](CO[C@@H]5O[C@@H](C)[C@H](O)[C@@H](O)[C@H]5O)[C@@H](O)[C@H](O)[C@H]4O)cc3O2)cc1O [HESPERIDIN] |  | > 1000 µM | Active
CCCCCCCCCCCCCCCC(=O)C1=C(OC)[C@@H](CO)OC1=O | > 100 µM |  | 
